The values that follow come from patent US8227489B2, “N-(aminoheteroaryl)-1H-indole-2-carboxamide derivatives, preparation thereof and therapeutic use thereof” (Sanofi-Aventis, priority 2006, dated 2012).

SMILES strings stand for the structures. Structures can show the parent of a compound that is named as a salt.

One data set addresses T1, TRPV1 receptor (Rattus norvegicus, UniProt O35433).
T1 construct: The neurons of the DRG naturally express the TRPV1 receptor; endogenous in cells; host or cells: primary culture of newborn rat dorsal root ganglion neurons
Briefly: Inhibition of the current induced by capsaicin with regard to rat DRGs (whole cell patch clamp). The data set is classed as cell-based. Particulars: DRG neuron, capsaicin 1 microM response, rat DRG neurons, read-out: % Inhibition by the DRG patch technique; for inhibition at 0.01 µM: compound at 10 nM; for inhibition at 0.001 µM: compound at 1 nM. How it is done:
Test of the Inhibition of the Current Induced by Capsaicin with Regard to Rat DRGs
• Primary culture of rat dorsal root ganglion (DRG) cells:
The neurons of the DRG naturally express the TRPV1 receptor.
Primary cultures of DRGs of newborn rats are prepared from one-day-old rats. Briefly, after dissection, the ganglions are trypsinized and the cells dissociated mechanically by gentle trituration. The cells are resuspended in an Eagle's basal culture medium comprising 10% of fetal calf serum, 25 mM KCl, 2 mM glutamine, 100 μg/ml of gentamicin and 50 ng/ml of NGF and then deposited on glass cover slips covered with laminin (0.25×10^6 cells per cover slip) which are subsequently placed in 12-well Corning dishes. The cells are incubated at 37° C. in a humidified atmosphere comprising 5% of CO2 and 95% of air. Cytosine β-D-arabinoside (1 μM) is added 48 h after culturing, in order to prevent the growth of non-neuronal cells. After culturing for 7-10 days, the cover slips are transferred into experimental chambers for the patch clamp studies.
The measurement chambers (volume 800 μl) comprising the cell preparation are placed on the stage of an inverted microscope (Olympus IMT2) equipped with Hoffman optics (Modulation Contrast, New York) and are observed at a magnification of 400×. The chambers are continuously perfused by gravity (2.5 ml/min) using a distributor of solutions which has 8 inlets, the single outlet of which, composed of a polyethylene tube (opening 500 μm), is placed at least 3 mm from the cell studied. The “whole cell” configuration of the patch clamp technique was used. Borosilicate glass pipettes (resistance 5-10 Mohms) are brought close to the cell using a 3D piezoelectric micromanipulator (Burleigh, PC1000). The overall currents (membrane potential set at −60 mV) are recorded with an Axopatch 1D amplifier (Axon Instruments, Foster City, Calif.) connected to a PC controlled by Pclamp8 software (Axon Instruments). The current plots are recorded on paper and simultaneously recorded digitally (sampling frequency 15 to 25 Hz) and acquired on the hard disk of the PC.
The application of a micromolar capsaicin solution produces an incoming cationic current with regard to the DRG cells (voltage set at […]). In order to minimize the desensitization of the receptors, a minimum interval of one minute between two applications of capsaicin is observed. After a control period (stabilization of the capsaicin alone response), the test compounds are applied alone at a given concentration (concentration of 10 nM or […]) for a period of time of 4 to 5 minutes, during which several capsaicin+compound tests are carried out (obtaining the maximum inhibition). The results are expressed as % of inhibition of the control capsaicin response.

The target of another data set is T2, TRPV1 receptors (Mus musculus, UniProt Q704Y3).
T2 construct: from tissue; host or cells: cornea of the living mouse (in vivo)
T2 sequence (Q704Y3 whole entry): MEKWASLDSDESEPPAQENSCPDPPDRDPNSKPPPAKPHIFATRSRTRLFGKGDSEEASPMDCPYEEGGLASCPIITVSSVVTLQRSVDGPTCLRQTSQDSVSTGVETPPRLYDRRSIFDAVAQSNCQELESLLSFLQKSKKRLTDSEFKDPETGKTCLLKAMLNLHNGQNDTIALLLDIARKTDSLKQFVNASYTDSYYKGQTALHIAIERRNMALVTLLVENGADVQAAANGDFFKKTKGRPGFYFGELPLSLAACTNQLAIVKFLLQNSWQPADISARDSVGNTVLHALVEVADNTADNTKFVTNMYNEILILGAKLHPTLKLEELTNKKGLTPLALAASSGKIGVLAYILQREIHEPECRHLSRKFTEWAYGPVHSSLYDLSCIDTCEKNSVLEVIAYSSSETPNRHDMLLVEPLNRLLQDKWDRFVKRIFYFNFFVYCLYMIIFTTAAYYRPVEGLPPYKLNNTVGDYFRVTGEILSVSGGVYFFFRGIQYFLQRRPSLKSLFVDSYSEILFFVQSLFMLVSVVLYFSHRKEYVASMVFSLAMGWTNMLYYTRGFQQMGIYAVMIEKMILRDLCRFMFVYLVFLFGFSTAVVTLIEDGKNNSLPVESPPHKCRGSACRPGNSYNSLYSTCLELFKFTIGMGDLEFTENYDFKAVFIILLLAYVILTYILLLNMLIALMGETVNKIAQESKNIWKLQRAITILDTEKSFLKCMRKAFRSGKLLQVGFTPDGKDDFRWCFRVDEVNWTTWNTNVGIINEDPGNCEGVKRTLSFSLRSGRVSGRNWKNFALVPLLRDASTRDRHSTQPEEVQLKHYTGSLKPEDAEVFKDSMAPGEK
Briefly: Mouse corneal irritation test (capsaicin-induced). The data set is classed as in vivo. As to conditions: compound 500 μM, 2 μl local application on cornea 10 minutes before 160 μM capsaicin. How it is done:
Mouse Corneal Irritation Test
The irritating nature of capsaicin is easily assessed on the cornea since this organ is one of the most innervated by C fibers. In this context, according to preliminary experiments, the application of a very small amount of capsaicin (2 μl at a concentration of 160 μM) at the surface of the cornea of an animal results in a number of kinds of stereotyped behavior related to irritation which are easy to record. These include: blinking of the eye, rubbing of the instilled eye by the ipsilateral front paw, rubbing of the face with the two front paws and scratching of the ipsilateral face by the hind paw. […] Its appearance is furthermore also normal. […] It may be concluded therefrom that the duration of action of capsaicin at these doses is less than 2 minutes.
Summary of the Methodology: […]
In practice, the test product, prepared at 25 mM in DMSO and diluted for its final use in physiological saline with 10% Tween 80 to the stronger concentration of 500 μM, is administered in local application at the surface of the cornea under a volume of 2 μl, 10 minutes before the application of the capsaicin. […] During observation for 2 minutes following the instillation, the number of rubbing actions on the instilled eye by the ipsilateral front paw is counted for each animal.
For a given group, the percentage of protection is calculated as follows: […]

T1 sequence (O35433 whole entry): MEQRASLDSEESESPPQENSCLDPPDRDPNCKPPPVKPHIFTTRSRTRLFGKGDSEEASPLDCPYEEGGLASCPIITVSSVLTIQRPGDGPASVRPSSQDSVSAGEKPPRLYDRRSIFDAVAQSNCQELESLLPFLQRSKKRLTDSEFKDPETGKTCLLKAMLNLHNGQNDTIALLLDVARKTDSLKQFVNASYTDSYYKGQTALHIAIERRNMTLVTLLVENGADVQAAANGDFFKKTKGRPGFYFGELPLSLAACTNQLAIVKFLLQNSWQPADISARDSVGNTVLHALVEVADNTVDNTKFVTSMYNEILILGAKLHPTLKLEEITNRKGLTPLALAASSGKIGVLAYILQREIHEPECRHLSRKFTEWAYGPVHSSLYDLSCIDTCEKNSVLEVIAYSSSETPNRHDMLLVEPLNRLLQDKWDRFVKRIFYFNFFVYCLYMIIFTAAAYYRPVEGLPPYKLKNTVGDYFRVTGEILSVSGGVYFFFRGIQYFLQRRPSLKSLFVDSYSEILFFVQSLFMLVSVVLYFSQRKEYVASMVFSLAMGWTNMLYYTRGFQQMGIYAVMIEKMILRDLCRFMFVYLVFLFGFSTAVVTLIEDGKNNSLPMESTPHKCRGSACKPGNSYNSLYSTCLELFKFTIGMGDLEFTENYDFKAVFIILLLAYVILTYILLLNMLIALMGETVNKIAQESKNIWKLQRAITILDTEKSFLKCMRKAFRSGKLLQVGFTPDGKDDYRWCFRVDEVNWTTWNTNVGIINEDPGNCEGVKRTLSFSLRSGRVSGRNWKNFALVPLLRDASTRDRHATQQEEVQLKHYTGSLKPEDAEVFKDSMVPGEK

The compound `Cc1cc(N(C)C)ncc1NC(=O)c1cc2cc(F)ccc2n1Cc1cccc(F)c1` displayed a melting point of 183 to 185 °C.
The compound `CC(=O)Nc1ccc(NC(=O)c2cc3cc(F)ccc3n2Cc2cccc(F)c2)cn1` had a melting point of 252 to 254 °C.
Take `Cc1cc(NC(=O)c2cc3cc(F)ccc3n2Cc2ccncc2)cnc1N(C)C` [Compound 19, N-[6-dimethylamino-5-methylpyridin-3-yl]-5-fluoro-1-(pyridin-4-ylmethyl)-1H-indole-2-carboxamide]: the melting point lay within 164 to 165 °C. The inhibition at 0.01 µM at TRPV1 receptor stood at 33%.
Compound `CN(C)C1=CNN(NC(=O)c2cc3cc(C(F)(F)F)ccc3n2Cc2cccc(F)c2)C=C1` had a melting point of 138 to 139 °C.
With `CNc1cc(C)c(NC(=O)c2cc3cc(F)ccc3n2Cc2cccc(F)c2)cn1`, the melting point is 215 to 217 °C.
As for `CN(C)C1=CNN(NC(=O)c2cc3cc(C(F)(F)F)ccc3n2Cc2ccncc2)C=C1.Cl`, the melting point was 268 to 272 °C.
`CNc1ccc(NC(=O)c2cc3cc(F)ccc3n2Cc2cccc(F)c2)c(C)n1`: the melting point was in the range of 229 to 230 °C.
Still for that read-out and setting: under `CN(C)c1ncc(NC(=O)c2cc3cc(F)ccc3n2Cc2cccc(F)c2)cc1C(F)(F)F` stands 142 to 143 °C.
`CN(C)C1=CNN(NC(=O)c2cc3cc(F)ccc3n2Cc2cccc(F)c2)C=C1` (as salt: hydrochloride) returned a melting point of 239 to 241 °C.
Same read-out and setting: under `CN(C)C1=CNN(NC(=O)c2cc3ccc(C(F)(F)F)cc3n2Cc2cccc(F)c2)C=C1` stands 255 to 267 °C; under `CN(C)c1ncc(NC(=O)c2cc3cc(F)ccc3n2Cc2cccc(F)c2)cc1F`, 158 to 159 °C.
As for `CNc1ccc(NC(=O)c2cc3cc(F)ccc3n2Cc2cccc(F)c2)cn1` [Compound 1, N-[6-(methylamino)pyridin-3-yl]-5-fluoro-1-(3-fluorobenzyl)-1H-indole-2-carboxamide], the melting point is 225 to 227 °C. For the same compound, at TRPV1 receptor, the inhibition at 0.001 µM worked out at 53%. For the same compound, on TRPV1 receptors, the “% P (percentage of protection)” value is listed as 23%.
With `CN(C)c1ccc(NC(=O)c2cc3cc(F)ccc3n2Cc2cccc(F)c2)cn1.Cl`, the melting point lay in the range of 232 to 234 °C.
`CNc1cc(C)c(NC(=O)c2cc3cc(F)ccc3n2Cc2ccncc2)cn1` yielded a melting point of 218 to 220 °C.
Still for that read-out and setting: under `Cc1cc(NC(=O)c2cc3cc(F)ccc3n2Cc2cccc(F)c2)cnc1N(C)C` stands 145 to 146 °C; under `CC(=O)Nc1ccc(NC(=O)c2cc3ccc(C(F)(F)F)cc3n2Cc2cccc(F)c2)cn1`, 293 to 295 °C.
`Cc1cc(N(C)C)ncc1NC(=O)c1cc2cc(F)ccc2n1Cc1ccncc1` [Compound 17, N-[6-dimethylamino-4-methylpyridin-3-yl]-5-fluoro-1-(pyridin-4-ylmethyl)-1H-indole-2-carboxamide] displayed a melting point of 217 to 219 °C. Besides, the inhibition at 0.01 µM on TRPV1 receptor is 60%.
`CN(C)c1ccc(NC(=O)c2cc3cc(C(F)(F)F)ccc3n2Cc2cccc(F)c2)cn1` [Compound 12, N-[6-(dimethylamino)pyridin-3-yl]-5-trifluoromethyl-1-(3-fluorobenzyl)-1H-indole-2-carboxamide]: the inhibition at 0.001 µM on TRPV1 receptor came to 100%.
As for `CNc1ccc(NC(=O)c2cc3cc(F)ccc3n2Cc2ccncc2)cn1`, the melting point fell in the range of 220 to 222 °C.
